“And” between values parts separate entries of the source, which are not always exact repeats. Equal entries are not always repeated.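 Following 48 hours of exposure in 96-well plates, responses at five concentrations were used to interpolate endpoints linearly. Here, GI50 denotes the concentration required for 50% inhibition of growth. TGI: concentration producing complete growth inhibition.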
Legend:
Test in all cases: NCI tumour cell line growth inhibition, 48 h
SNB-75 CNS = system: SNB-75 CNS
M14 melanoma = system: M14 melanoma
NCI-H226 lung = system: NCI-H226 lung
RXF 393 renal = system: RXF 393 renal
KM12 colon = system: KM12 colon
LOX IMVI melanoma = system: LOX IMVI melanoma
NCI-H460 lung = system: NCI-H460 lung
K-562 leukemia = system: K-562 leukemia
MDA-MB-231 breast = system: MDA-MB-231 breast
UO-31 renal = system: UO-31 renal

Row | SMILES | GI50 (SNB-75 CNS) | TGI (SNB-75 CNS) | GI50 (M14 melanoma) | TGI (M14 melanoma) | TGI (NCI-H226 lung) | GI50 (RXF 393 renal) | TGI (RXF 393 renal) | TGI (KM12 colon) | TGI (LOX IMVI melanoma) | TGI (NCI-H460 lung) | TGI (K-562 leukemia) | TGI (MDA-MB-231 breast) | GI50 (UO-31 renal) | TGI (UO-31 renal) | GI50 (NCI-H226 lung) | GI50 (KM12 colon) | GI50 (LOX IMVI melanoma) | GI50 (NCI-H460 lung) | GI50 (K-562 leukemia) | GI50 (MDA-MB-231 breast)
1 | C#CC1(O)C(COP(=O)(O)OC(COCCCCCCCCCCCCCCCCCC)COP(=O)(O)OCC2OC(n3cc(F)c(=O)[nH]c3=O)CC2O)OC(n2ccc(N)nc2=O)C1O (stereo not drawn) | 0.343 µM and 0.975 µM | 18.7 µM and 30.2 µM | 1.53 µM and 0.218 µM | 24.3 µM and 2.74 µM | 23.5 µM and 26 µM | 0.306 µM and 2.46 µM | 17.3 µM and 22.5 µM | > 49.8 µM and 17 µM | 7.25 µM and 37.7 µM | 15.3 µM and 15.1 µM | > 100 µM and 16.7 µM | 26.7 µM and 31.1 µM | < 0.0376 µM and 0.115 µM | 1.15 µM and 4.26 µM | – | – | – | – | – | –
2 | Cc1cc(NCCN(C(C)C)C(C)C)nc(/N=C(\N)Nc2ccc(Cl)c(C(F)(F)F)c2)n1 | 0.449 µM | 1.03 µM | 0.181 µM | 0.323 µM | 4.15 µM | 0.249 µM | 0.75 µM | 1.79 µM | 0.365 µM | 1.62 µM | 0.411 µM | 1.04 µM | 0.201 µM | 0.604 µM | 1.96 µM | 0.674 µM | 0.193 µM | 0.463 µM | 0.191 µM | 0.292 µM
3 | O=[N+]([O-])c1ccc2c(c1)Cc1cc(N=Cc3ccc4c(c3)OCO4)ccc1-2 | – | > 100 µM | – | > 100 µM | > 100 µM | – | > 100 µM | > 100 µM | > 100 µM | > 100 µM | > 100 µM | > 100 µM | – | > 100 µM | – | – | – | – | – | –
4 | C=CCC1(O)c2ccccc2C(=O)c2c(NCCN(CC(=O)OCC)CC(=O)OCC)cccc21 (stereo not drawn) | > 100 µM | > 100 µM | > 100 µM | > 100 µM | > 100 µM | > 100 µM | > 100 µM | > 100 µM | > 100 µM | > 100 µM | > 100 µM | > 100 µM | > 100 µM | > 100 µM | > 100 µM | > 100 µM | > 100 µM | > 100 µM | 30.9 µM | > 100 µM
5 | CNC(=O)c1cccc2cc(Oc3ccnc4cc(OCC5(N)CC5)c(OC)cc34)ccc12 | 0.76 µM | 15.5 µM | 8.47 µM | 24.3 µM | 23.2 µM | 4.42 µM | 20.4 µM | 19.7 µM | 17.1 µM | 18.1 µM | 16.7 µM | 27.9 µM | 2.57 µM | 8.16 µM | 1.02 µM | 6.17 µM | 3.89 µM | 5.12 µM | 3.55 µM | 9.79 µM
6 | O=c1oc(Cl)c(Cl)c2ccccc12 | 24.7 µM | 59.3 µM | 41.3 µM | > 100 µM | 42.3 µM | 24.8 µM | 52.2 µM | > 100 µM | 51.9 µM | > 100 µM | 70.5 µM | 68.4 µM | 22.4 µM | 47.9 µM | 22.2 µM | 35.8 µM | 17.6 µM | 55.5 µM | 27.2 µM | 24.8 µM
7 | CCCCC[C@H]1C/C=C2/C(=O)C=C[C@@H]2C/C=C\CCCC(=O)O[C@@H](CCCCC)C/C=C2/C(=O)C=C[C@@H]2C/C=C\CCCC(=O)O1 | 0.552 µM | 2.4 µM | 0.273 µM | 1.01 µM | 1.64 µM | 0.193 µM | 0.526 µM | 0.786 µM | 0.217 µM | 1.48 µM | 0.561 µM | 2.17 µM | 0.394 µM | 0.75 µM | 0.746 µM | 0.382 µM | 0.0695 µM | 0.606 µM | 0.0891 µM | 0.132 µM
8 | COc1cc(Nc2c(C#N)cnc3cc(OCCCN4CCN(C)CC4)c(OC)cc23)c(Cl)cc1Cl | 0.707 µM | 8.38 µM | 1.3 µM | 3.03 µM | 34.5 µM | 0.85 µM | 6.02 µM | 7.24 µM | 2.75 µM | 17.7 µM | 3.82 µM | 7.14 µM | 0.687 µM | 7.75 µM | 12.1 µM | 0.331 µM | 1.15 µM | 3.99 µM | 0.0211 µM | 2.76 µM
9 | COc1ccc(-c2nc(-c3ccccc3)c(-c3ccccc3)[nH]2)cc1OC1CCCC1 | > 100 µM | > 100 µM | > 100 µM | > 100 µM | > 100 µM | 8.3 µM | 99.5 µM | > 100 µM | > 100 µM | > 100 µM | > 100 µM | > 100 µM | > 100 µM | > 100 µM | > 100 µM | 40.9 µM | 34.3 µM | > 100 µM | 79.5 µM | 15.5 µM
10 | COc1c(O)cc2oc(-c3ccc(O)cc3)cc(=O)c2c1O | – | 58.2 µM | – | > 100 µM | > 100 µM | – | > 100 µM | > 100 µM | > 100 µM | > 100 µM | > 100 µM | > 100 µM | – | > 100 µM | – | – | – | – | – | –
11 | O=CN/C=C/c1cccc(O)c1 | – | > 92.5 µM | – | > 88.2 µM | 89.2 µM | – | 85.1 µM | > 100 µM | 69.1 µM | 77.6 µM | > 100 µM | 99.2 µM | – | > 83.2 µM | – | – | – | – | – | –
12 | Nc1nc(N)c2nc(CNc3ccc(C(=O)NC(CC(=O)O)C(=O)O)cc3)cnc2n1 (stereo not drawn) | 22.2 µM | > 100 µM | 0.556 µM | > 100 µM | > 100 µM | > 72.4 µM | > 100 µM | > 100 µM | > 100 µM | > 100 µM | > 100 µM | > 100 µM | 1.18 µM | > 35.9 µM | 30.6 µM | 0.897 µM | 0.16 µM | 0.354 µM | 0.0741 µM | > 100 µM
13 | COC1=CC(c2ccc[nH]2)=N/C1=C\c1[nH]c(C)c(C(=O)CCCCC(=O)NC(C)(C)C)c1C | 2.79 µM | 9 µM | 1.62 µM | 3.1 µM | 15 µM | 1.66 µM | 3.6 µM | 2.38 µM | 2.42 µM | 4.52 µM | – | 3.95 µM | 1.95 µM | 6.27 µM | 2.97 µM | 1.16 µM | 1.15 µM | 1.87 µM | 1.94 µM | 0.957 µM
14 | CCC1CN2C(=N1)c1ccccc1-c1cc(Cl)ccc12 (stereo not drawn) | 3.73 µM | 16 µM | 3.13 µM | 10.4 µM | 4.86 µM | 3.5 µM | 15 µM | 12.5 µM | 4.44 µM | 10.5 µM | 7.1 µM | 25.4 µM | 2.39 µM | 15.1 µM | 1.81 µM | 3.18 µM | 1.81 µM | 2.15 µM | 2.39 µM | 3.4 µM
15 | CNCCCn1c2c(c3ccc([N+](=O)[O-])cc3c1=O)C(=O)c1cc(OC)cnc1-2 | 0.134 µM | 2.46 µM | 0.0394 µM | 0.358 µM | 0.245 µM | 0.0685 µM | 0.372 µM | 0.593 µM | 0.136 µM | 0.185 µM | 1.53 µM | 1.72 µM | 0.0341 µM | 0.221 µM | 0.0946 µM | 0.162 µM | 0.0259 µM | 0.0194 µM | 0.0435 µM | 0.265 µM
16 | Cc1ccc(-c2nc(C#N)c(S(=O)(=O)n3nc(C)cc3N)o2)cc1 | 13.7 µM | 27.1 µM | 3.35 µM | 14.4 µM | 41.4 µM | 1.87 µM | 3.56 µM | 33.8 µM | 3.59 µM | 41.5 µM | 4.3 µM | 6.31 µM | 1.74 µM | 3.33 µM | 15.6 µM | 16.5 µM | 1.86 µM | 19.5 µM | 1.25 µM | 2.42 µM
17 | CCn1cnc(C[C@H](NC(=O)[C@@H](NC(=O)Nc2cc(C(F)(F)F)cc(C(F)(F)F)c2)C(C)C)C(=O)OC)c1 | 1.61 µM | 6.82 µM | 3.54 µM | > 10 µM | > 10 µM | 1.73 µM | 3.32 µM | 3.9 µM | 7.43 µM | 4.43 µM | > 10 µM | 4.11 µM | > 10 µM | > 10 µM | 3.74 µM | 1.89 µM | 2.5 µM | 2.13 µM | 6.38 µM | 1.9 µM
18 | O=C(N/C(=C/c1ccc(Cl)cc1Cl)c1nc2ccccc2s1)c1ccccc1 | – | 34.4 µM | – | 37.6 µM | 27.7 µM | – | 54.9 µM | 26.5 µM | 18.7 µM | 52.2 µM | > 100 µM | 22.3 µM | – | 29.9 µM | – | – | – | – | – | –
19 | C=C1/C(=C\C=C2/CCC[C@]3(C)[C@@H]([C@H](C)CCCC(C)(C)O)CC[C@@H]23)C[C@@H](OC(=O)CBr)C[C@@H]1O | < 0.0116 µM | 0.109 µM | 2.71 µM | 8.74 µM | 22.1 µM | 2.6 µM | 7.41 µM | 3.03 µM | 0.304 µM | 28 µM | > 33.9 µM | 5.4 µM | 0.155 µM | 0.292 µM | 3.74 µM | 0.4 µM | 0.147 µM | 12 µM | 2.75 µM | 1.39 µM
20 | COc1cccc(-c2nn(-c3ccccc3)cc2-c2ccnc(NCCCNC(=O)Nc3ccc(Cl)c(Cl)c3)c2)c1 | 2.52 µM | 19.2 µM | 1.97 µM | 4.45 µM | 41.6 µM | 1.81 µM | 4.87 µM | 11.3 µM | 3.03 µM | 14.7 µM | 5.33 µM | 5.03 µM | 1.78 µM | 5.65 µM | 5.61 µM | 2.75 µM | 1.64 µM | 3.76 µM | 2.38 µM | 1.97 µM
21 | COc1cccc(C2=C(c3c(C)n(C)c4ccccc34)C(=O)NC2=O)c1 | 6.63 µM | > 25 µM | 21.1 µM | > 25 µM | > 25 µM | 12 µM | > 25 µM | > 25 µM | > 25 µM | > 25 µM | > 25 µM | > 25 µM | 14 µM | > 25 µM | > 19.1 µM | 15.5 µM | > 25 µM | > 25 µM | 11 µM | > 25 µM
22 | COc1ccc(C2CC(C)(O)Oc3cc4c(cc32)OCO4)cc1 (stereo not drawn) | – | > 100 µM | – | > 87.8 µM | > 100 µM | – | > 39 µM | > 100 µM | > 100 µM | > 100 µM | 98.7 µM | > 100 µM | – | > 100 µM | – | – | – | – | – | –

Source: PubChem BioAssay (NCI)
